Assay results reported in US20180000085A1, “USE OF PICOLINAMIDE COMPOUNDS WITH FUNGICIDAL ACTIVITY” (DOW AGROSCIENCES LLC, priority 2014, published 2018).

What was measured:
Zymoseptoria tritici = assay: Leaf blotch of wheat (SEPTTR) disease control on wheat seedlings; format: in vivo; design: key to SEPTTR 1DP, HV activity at 100 ppm (% control rating) / SEPTTR 3DC, HV activity at 100 ppm (% control rating) / SEPTTR disease control, 1DP / SEPTTR disease control, 3DC / SEPTTR 1DP disease control rating, HV activity / SEPTTR 3DC disease control rating, HV activity / SEPTTR 3DC, LV activity at 125.1 g/H (% Control rating) / SEPTTR 1DP, LV activity at 125.1 g/H (% Control rating) / SEPTTR 1DP disease control rating, LV activity at 125.1 g/H / SEPTTR 3DC disease control rating, LV activity at 125.1 g/H / SEPTTR 3DC disease control rating, HV activity at 100 ppm / SEPTTR 1DP disease control rating, HV activity at 100 ppm / HV activity at 100 ppm SEPTTR 3DC (disease control rating) / HV activity at 100 ppm SEPTTR 1DP (disease control rating) / LV activity at 125.1 g/H SEPTTR 1DP (disease control rating) / LV activity at 125.1 g/H SEPTTR 3DC (disease control rating): A: > 80; B: ≤ 80; C: Not Tested; D: No Activity Observed in the Reported Assay; settings: for SEPTTR 1DP disease control rating, LV activity at 125.1 g/H / SEPTTR 3DC disease control rating, LV activity at 125.1 g/H: low volume application; for SEPTTR 1DP disease control rating, LV activity at 125.1 g/H / SEPTTR 1DP disease control rating, HV activity at 100 ppm: 1 day protectant; for SEPTTR 3DC disease control rating, LV activity at 125.1 g/H / SEPTTR 3DC disease control rating, HV activity at 100 ppm: 3 day curative; for SEPTTR 1DP disease control rating, HV activity at 100 ppm / SEPTTR 3DC disease control rating, HV activity at 100 ppm: high volume application
Puccinia triticina = assay: Wheat brown rust (PUCCRT) disease control on wheat seedlings; format: in vivo; settings: for PUCCRT 1DP disease control rating, LV activity at 125.1 g/H / PUCCRT 3DC disease control rating, LV activity at 125.1 g/H: low volume application; for PUCCRT 1DP disease control rating, LV activity at 125.1 g/H / PUCCRT 1DP disease control rating, HV activity at 100 ppm: 1 day protectant; for PUCCRT 3DC disease control rating, LV activity at 125.1 g/H / PUCCRT 3DC disease control rating, HV activity at 100 ppm: 3 day curative; for PUCCRT 1DP disease control rating, HV activity at 100 ppm / PUCCRT 3DC disease control rating, HV activity at 100 ppm: high volume application

Compound | SEPTTR 1DP disease control rating, LV activity at 125.1 g/H (Zymoseptoria tritici) | SEPTTR 3DC disease control rating, LV activity at 125.1 g/H (Zymoseptoria tritici) | PUCCRT 1DP disease control rating, LV activity at 125.1 g/H (Puccinia triticina) | PUCCRT 3DC disease control rating, LV activity at 125.1 g/H (Puccinia triticina) | SEPTTR 1DP disease control rating, HV activity at 100 ppm (Zymoseptoria tritici) | SEPTTR 3DC disease control rating, HV activity at 100 ppm (Zymoseptoria tritici) | PUCCRT 1DP disease control rating, HV activity at 100 ppm (Puccinia triticina) | PUCCRT 3DC disease control rating, HV activity at 100 ppm (Puccinia triticina)
COc1ccnc(C(=O)NC(C)C(=O)OC(C)C(OCC2CC2)C2CCCC2)c1OCOC(C)=O (stereo not shown) [Cmpd 914] | B (≤ 80) | B (≤ 80) | A (> 80) | A (> 80) | – | – | – | –
COc1ccnc(C(=O)N[C@@H](C)C(=O)O[C@@H](C)[C@H](Oc2ccc(Cl)cc2)C2CCCC2)c1OC(C)=O [Cmpd 921] | A (> 80) | B (≤ 80) | A (> 80) | A (> 80) | – | – | – | –
COc1ccnc(C(=O)N[C@@H](C)C(=O)O[C@@H](C)[C@H](OCC(C)C)C2CCCC2)c1OC(C)=O [Cmpd 922] | A (> 80) | B (≤ 80) | A (> 80) | A (> 80) | – | – | – | –
CCC[C@@H](Oc1ccc(C)cc1Cl)[C@H](C)OC(=O)[C@H](C)NC(=O)c1nccc(OC)c1O [Cmpd 999] | – | – | – | – | B (≤ 80) | B (≤ 80) | A (> 80) | A (> 80)
COc1cc(O[C@H](C2CC2)[C@H](C)OC(=O)[C@H](C)NC(=O)c2nccc(OC)c2O)ccc1Cl [Cmpd 1000] | – | – | – | – | B (≤ 80) | B (≤ 80) | A (> 80) | A (> 80)
COc1cc(O[C@@H]([C@H](C)OC(=O)[C@H](C)NC(=O)c2nccc(OC)c2O)C(C)(C)C)ccc1Cl [Cmpd 1001] | – | – | – | – | B (≤ 80) | D | A (> 80) | A (> 80)
COc1ccnc(C(=O)N[C@@H](C)C(=O)O[C@@H](C)[C@H](OCC2CC2)C2CC2)c1O [Cmpd 1002] | – | – | – | – | B (≤ 80) | B (≤ 80) | A (> 80) | A (> 80)
CCC[C@@H](OCC1CC1)[C@H](C)OC(=O)[C@H](C)NC(=O)c1nccc(OC)c1O [Cmpd 1003] | – | – | – | – | A (> 80) | B (≤ 80) | A (> 80) | A (> 80)
COc1ccnc(C(=O)N[C@@H](C)C(=O)O[C@@H](C)[C@H](OCC2CC2)C(C)(C)C)c1O [Cmpd 1004] | – | – | – | – | B (≤ 80) | B (≤ 80) | A (> 80) | A (> 80)
COc1ccnc(C(=O)N[C@@H](C)C(=O)O[C@@H](C)[C@H](Oc2ccc(C)cc2Cl)C2CC2)c1O [Cmpd 1005] | – | – | – | – | B (≤ 80) | B (≤ 80) | A (> 80) | A (> 80)
COc1ccnc(C(=O)N[C@@H](C)C(=O)O[C@@H](C)[C@H](Oc2ccc(C)cc2Cl)C(C)(C)C)c1O [Cmpd 1006] | – | – | – | – | B (≤ 80) | B (≤ 80) | A (> 80) | A (> 80)
COc1ccnc(C(=O)N[C@@H](C)C(=O)O[C@@H](C)[C@H](Oc2cccc(Cl)c2)C(C)(C)C)c1O [Cmpd 1007] | – | – | – | – | A (> 80) | B (≤ 80) | A (> 80) | A (> 80)
CCC[C@@H](Oc1ccc(Cl)c(OC)c1)[C@H](C)OC(=O)[C@H](C)NC(=O)c1nccc(OC)c1O [Cmpd 1008] | – | – | – | – | B (≤ 80) | B (≤ 80) | B (≤ 80) | B (≤ 80)
